The test system of assay [1] is P. falciparum 3D7 parasites. Put plainly: Asexual stage of arrest assay (Giemsa smears, SYBR green flow cytometry). The class given is cell-based. How it is done:
Asexual stage of arrest phenotyping. Inhibition of PMX prevents parasites from egressing from the host erythrocyte and arrests asexual stage parasites at the late schizont stage. […] In this assay, highly synchronized asexual ring stage parasites were treated with ten times the EC50 of 38 and 49c (2) and the DMSO vehicle control. The parasite stage of arrest was analyzed by microscopy of Giemsa‐stained blood smears, while parasitemia was quantified by flow cytometry at 12, 24, 36 and 48 hours.
Stage Arrestment Assay. As previously described,[42] P. falciparum 3D7 parasites were synchronized using a 5 % D‐sorbitol solution prior to assay set‐up. Ring‐staged parasites were adjusted to a final parasitemia and haematocrit of 1 % and 2 %, respectively. Compounds were added to a final concentration of 10×EC50 which were replenished after 24 h. Plates were incubated at 37°C for 48 h and blood smears and 50 μL aliquots in triplicate were harvested every 12 h. Aliquots for flow cytometry analysis were fixed in 0.25 % glutaraldehyde for 30 min at room temperature before being washed in PBS and stored at 4 °C until completion of the assay. To determine parasitemia, fixed blood pellets were stained with 50 μL 2.5×SYBR Green (Invitrogen) for 30 min before being diluted with 180 μL of PBS. 100 000 cells for each sample were counted using an Attune Flow Cytometer (ThermoFisher Scientific). Blood smears were stained with Giemsa and morphology of parasites were examined using a Zeiss Axio Observer microscope.

The next assay deals with T1, cathepsin D (Homo sapiens, UniProt P07339).
T1 construct: purchased Athens Research 16-12-030104
Put plainly: Cathepsin D FRET protease assay. The class given is biochemical. The following applies: mean and SD of 4 replicate FRET experiments, 37 °C; highest concentration tested 11 μM.

Assay [2] relates to P. falciparum (Pf) 3D7 parasites. In words: P. falciparum LDH viability assay. The class given is cell-based. The following applies: for EC50: Plasmodium falciparum, 3D7, 72 h, LDH activity, 72 h at 37 °C, mean and SD of 3 independent experiments. Here is the method:
P. falciparum LDH Viability Assay. P. falciparum LDH viability assays were performed as previously described.[40] Briefly, a ten‐point 1 : 3‐fold dilution series of the compounds were pre‐dispensed in 384‐well assay plates (Grenier), and RPMI/AlbuMAX growth media inoculated with synchronized ring stage P. falciparum parasites. 10 mM compound stocks were transferred into the assay plates such that the starting concentration was 10 μM. Plates were incubated for 72 h and then frozen at −80 °C overnight. Lactate dehydrogenase (LDH) activity was quantified with APAD by measuring absorbance of NBT at 650 nm. Data were normalized to percent growth inhibition using the positive control of 0.1 % DMSO alone and the negative control of 100 nM chloroquine. Half‐maximal effective concentration (EC50) values were calculated by GraphPad Prism (8.0.2) software using a nonlinear regression four‐parameter fit analysis using a sigmoidal dose response (variable slope).

For another assay, the target named is T2, recombinant Pv PMV (Plasmodium vivax, UniProt A5K302).
T2 construct: made in house
In words: PMV FRET protease assay. The class given is biochemical. Here is the method:
(§1) FRET Protease Assays. FRET protease assays were performed as previously described.[19, 20, 27, 28] Briefly, ten‐point 1 : 3‐fold dilution series of the compounds were prepared in 384‐well black low volume assay plates (Greiner) using an Echo555 (Labcyte). 10 mM compound stocks were transferred into assay plates such that the starting concentration was 90 μM (Pv PMV assays), 11.25 μM (renin, cathepsin D and BACE‐1 assays) or 100 nM and 10 μM (Pf PMX and Pf PMIX assays). All wells were backfilled to 200 nL DMSO such that the DMSO concentration remained constant across the assay plates (1 % final). All compound potency assays were conducted in 20 μL total volume. For each assay, 10 μL of recombinant enzymes in respective assay buffers (Table S2) were dispensed into compound containing assay plates using a Multidrop‐Combi dispenser and allowed to incubate for 15 min. Recombinant Pf PMX, Pf PMIX and Pv PMV were expressed as previously described,[23, 27, 28] and recombinant human aspartyl proteases were purchased commercially. 10 μL of the fluorogenic peptide substrates incubated at 37 °C for the duration and conditions noted in Table S2. Samples were excited at 340 nm and fluorescence emission measured at 492 nm using an Envision fluorescence plate reader (Perkin‐Elmer). The 0 % inhibition control contained DMSO alone (1 % final) and the 100 % inhibition control was in the absence of enzyme. Half‐maximal inhibitory concentration (IC50) values were calculated by GraphPad Prism (8.0.2) software using a nonlinear regression four‐parameter fit analysis using a sigmoidal dose response (variable slope).
(§2) Table S2 . P rotease FRET assay conditions.
(§3) PMX as sa y PMIX PM V assay Renin assay Cathepsin D assay BA CE-1 assay E nzy me prot e as e 0.25 nM pro te a se 6 nM prot e as e q ua nti ty 0.1 nM pro t ea se 1.5 nM pro t ea se 2.5 nM pro t ea se 3 nM (Pro te os #R-001) ( Athe ns Re sea rc h (Sigma #S4195) […]
(§4) 25mM so di um acetate, 100 mM 25 mM M E S, 25 m M 50 mM Tr is, 100 mM 100 mM so di u m 20 mM so dium Buffer acetate, 0.005% sodium chloride and Tris-HCl, 0.01% N aC l, 0. 1% Bri j-35, acetate 0.02% scetate, 0.05% […]
(§5) Sub str at e DABCYL- ( DA BC YL ) - DABCYL- DABCYL-(γ- Ab u) - E[E(EDANS)]KPIL […]

For another assay, the target named is T3, recombinant Pf PMIX (Plasmodium falciparum, UniProt Q8ILG2).
T3 construct: made in house
In words: PMIX FRET protease assay. The class given is biochemical, P. falciparum. The conditions noted are these: mean and SD of 4 replicate FRET experiments, 37 °C. How it is done:
as §1, §2, §3, §4, §5

For another assay, the target named is T4, renin (Homo sapiens, UniProt P00797).
T4 construct: purchased Proteos R-001
T4 sequence (P00797 67-406): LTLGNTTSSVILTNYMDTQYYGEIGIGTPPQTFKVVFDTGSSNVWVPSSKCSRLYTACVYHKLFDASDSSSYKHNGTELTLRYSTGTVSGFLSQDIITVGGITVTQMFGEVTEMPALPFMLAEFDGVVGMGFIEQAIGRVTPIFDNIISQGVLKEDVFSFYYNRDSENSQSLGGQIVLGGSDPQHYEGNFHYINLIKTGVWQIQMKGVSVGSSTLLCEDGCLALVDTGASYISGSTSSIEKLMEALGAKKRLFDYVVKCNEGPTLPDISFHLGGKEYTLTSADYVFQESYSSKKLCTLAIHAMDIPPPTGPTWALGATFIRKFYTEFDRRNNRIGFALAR
In words: Renin FRET protease assay. The class given is biochemical. The following applies: mean and SD of 4 replicate FRET experiments, 37 °C; highest concentration tested 11 μM.

The structures appear in SMILES notation. Counter-ions that a name gives are not always drawn.

T3 sequence (Q8ILG2 whole entry): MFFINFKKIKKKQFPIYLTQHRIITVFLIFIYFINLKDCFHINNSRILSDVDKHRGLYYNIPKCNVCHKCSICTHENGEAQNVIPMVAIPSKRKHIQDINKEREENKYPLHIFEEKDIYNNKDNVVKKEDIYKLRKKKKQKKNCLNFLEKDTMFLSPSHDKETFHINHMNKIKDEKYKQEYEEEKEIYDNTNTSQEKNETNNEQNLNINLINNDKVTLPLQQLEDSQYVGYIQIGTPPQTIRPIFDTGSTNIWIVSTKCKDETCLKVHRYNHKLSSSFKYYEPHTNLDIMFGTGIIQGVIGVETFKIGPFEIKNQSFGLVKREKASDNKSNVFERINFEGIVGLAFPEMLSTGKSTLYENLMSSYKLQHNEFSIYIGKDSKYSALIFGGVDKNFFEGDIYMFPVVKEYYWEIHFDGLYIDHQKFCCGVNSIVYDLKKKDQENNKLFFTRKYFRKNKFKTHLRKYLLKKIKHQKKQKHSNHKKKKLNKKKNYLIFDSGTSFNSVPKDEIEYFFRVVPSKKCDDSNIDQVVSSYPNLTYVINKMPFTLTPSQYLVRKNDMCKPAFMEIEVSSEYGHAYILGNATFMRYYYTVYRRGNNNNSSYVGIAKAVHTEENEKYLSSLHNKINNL
T2 sequence (A5K302 35-536): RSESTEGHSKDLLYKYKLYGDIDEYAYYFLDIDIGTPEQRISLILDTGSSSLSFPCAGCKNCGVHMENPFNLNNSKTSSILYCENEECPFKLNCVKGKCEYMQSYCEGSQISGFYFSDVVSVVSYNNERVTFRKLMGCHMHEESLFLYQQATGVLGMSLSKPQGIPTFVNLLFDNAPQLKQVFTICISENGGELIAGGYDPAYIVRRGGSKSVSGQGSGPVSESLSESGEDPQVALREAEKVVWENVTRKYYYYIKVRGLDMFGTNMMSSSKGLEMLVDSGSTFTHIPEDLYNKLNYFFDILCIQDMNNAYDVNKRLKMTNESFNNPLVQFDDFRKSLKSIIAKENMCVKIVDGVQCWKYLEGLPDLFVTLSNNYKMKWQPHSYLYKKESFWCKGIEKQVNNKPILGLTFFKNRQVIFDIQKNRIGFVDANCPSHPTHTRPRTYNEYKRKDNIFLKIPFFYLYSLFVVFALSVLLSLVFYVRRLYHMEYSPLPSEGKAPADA
T1 sequence (P07339 65-412): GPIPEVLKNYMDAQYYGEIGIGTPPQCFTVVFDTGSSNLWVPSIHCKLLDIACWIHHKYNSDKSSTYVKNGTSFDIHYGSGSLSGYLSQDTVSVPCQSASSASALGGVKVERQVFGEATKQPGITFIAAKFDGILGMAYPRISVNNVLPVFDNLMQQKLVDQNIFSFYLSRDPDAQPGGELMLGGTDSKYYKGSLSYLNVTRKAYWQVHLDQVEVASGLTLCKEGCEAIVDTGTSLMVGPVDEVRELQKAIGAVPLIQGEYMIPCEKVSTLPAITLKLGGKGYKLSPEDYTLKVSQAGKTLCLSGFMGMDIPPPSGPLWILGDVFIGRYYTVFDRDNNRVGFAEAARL

As for `C[C@@H](NC[C@@H](O)[C@H](Cc1ccccc1)NC(=O)[C@H](CO)NC(=O)OCc1ccccc1)c1ccccc1` [Compd 38, Cbz‐Ser‐Phe‐HEA‐Bn(CH3)⋅TFA], in assay [1] (38 at 10×EC50 (900 nM), SYBR green flow cytometry at 12, 24, 36, 48 h), the “parasitemia / establishment of infection by flow cytometry” value is recorded as “unable to establish infection beyond 36 h”. Further, the “asexual parasite stage of arrest” value in assay [1] (38 at 10×EC50 (900 nM), synchronized ring stage parasites, Giemsa smears, up to 48 h) is “arrests asexual parasites at the schizont stage”. The IC50 was more than 11 µM on cathepsin D, more than 90 µM at recombinant Pv PMV, 41 µM at recombinant Pf PMIX and more than 11 µM at renin. Moreover, the “fold decrease in parasite activity compared to PMX inhibition” value in assay [2] (Pf 3D7 EC50 versus PMX IC50) is 2 fold. The compound also displayed a half-maximal effective concentration (EC50) in assay [2] of 0.09 µM.

For the compound `C[C@@H](NC[C@@H](O)[C@H](Cc1ccccc1)NC(=O)c1ccc(C(=O)N2CCN(C)CC2)cc1)c1ccccc1` [Compd 2, reference compound], the “merozoite egress / stage of arrest” value in assay [1] (49c (2) at 10×EC50 (6 nM), Giemsa smears and flow cytometry, up to 48 h) was “inhibition of merozoite egress”. Besides, the IC50 is more than 11 µM at cathepsin D, more than 90 µM at recombinant Pv PMV, 15.1 µM on recombinant Pf PMIX and more than 11 µM on renin. In addition, a half-maximal effect in assay [2] (EC50) was put at 0.001 µM.

Values taken from publication PMC9804387, “Substrate Peptidomimetic Inhibitors of P. falciparum Plasmepsin X with Potent Antimalarial Activity” (Chemmedchem, 2022).
